Test results published in paper PMC8688747 (Drug Design, Development and Therapy, 2021).
Like-named read-outs stand apart in the source and are kept apart here.

Columns and labels:
[1] = molecular target: T1, Mcl-1 (myeloid cell leukemia-1) (Homo sapiens, UniProt Q07820); test: 1H-15N HSQC NMR titration; assay type: binding
[2] = molecular target: T1, Mcl-1 (myeloid cell leukemia-1); test: 1H-15N HSQC NMR titration; assay type: binding; remark: listed apart in the source

T1 sequence (Q07820 172-327): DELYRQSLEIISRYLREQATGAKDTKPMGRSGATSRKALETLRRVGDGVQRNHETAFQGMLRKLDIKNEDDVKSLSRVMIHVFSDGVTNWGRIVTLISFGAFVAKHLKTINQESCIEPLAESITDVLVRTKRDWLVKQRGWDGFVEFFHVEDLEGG

O=C(O)c1ccc(-n2nc(-c3ccccc3O)nc2-c2ccccc2O)cc1 [Deferasirox]
Kd [1]: ~300 µM

Cc1cccc(Nc2ccncc2S(=O)(=O)NC(=O)NC(C)C)c1 [Torsemide]
Kd [2]: ~1000 µM
